The values that follow come from patent US10392348B2, “2-oxo-3,4-dihydroquinoline compounds as plant growth regulators” (Syngenta Participations AG, priority 2015, dated 2019).

Like-named read-outs stand apart in the source and are kept apart here.

The subject of this assay is soybean plants (variety S20-G7). Description: Reduced plant water use in soybean (foliar spray, repeated weighing of pots). The settings on record: Glycine max, foliar, Table B1, sprayed at 500 μM, vs negative control. It is filed as in vivo. As to the method: Compounds were tested for their effect on reducing plant water use as follows. Each compound was dissolved in a blank emulsifiable concentrate (EC) formulation that was then diluted to the desired concentration with water containing additional surfactant (EXTRAVON 1 g/20 L). The compounds were applied by foliar spray to 12 day old soybean plants (variety S20-G7) grown in controlled environment plant growth chambers. Plant water use during the day was assessed by repeated weighing of the pots in which the plants were grown before and after application of the compounds at the indicated times (expressed in days after application (DAA)). The water use data before application was used to correct any differences in water use arising due to non-treatment effects (e.g. due to differences in plant size). The untransformed water use values were subjected to an analysis of covariance, fitting the effect of treatment and using the baseline water use 1 day before application as a covariate.
The results are expressed compared to negative control treatment (diluted EC formulation without active ingredient but with EXTRAVON 1 g/20 L).
Application of the chemicals (0 DAA) takes place approximately between 08:00 and 09:30 a.m. WU is measured within day time (chamber light is on 06:00 to 20:00) at these timepoints: 0 DAA a.m. (10:30-12:50), 0 DAA p.m. (14:00-19:50), 1 DAA a.m. (7:30-12:50), 1 DAA p.m. (14:00-19:50), 2 DAA a.m. (07:30-12:50) and 2 DAA p.m. (14:00-19:50). The cumulative total WU (0-2.5 DAA) is calculated by summing the WU data mentioned above.

[1] abbreviates: 0 h, 0 DAA a.m. (10:30-12:50), read-out: % WU 0 DAA AM.
The mark [2] stands for this setting: 24 h, 1 DAA a.m. (7:30-12:50), read-out: % WU 1DAA AM.
Setting [3] is: 24 h, 1 DAA p.m. (14:00-19:50), read-out: % WU 1DAA PM.
[4] abbreviates: 48 h, 2 DAA a.m. (07:30-12:50), read-out: % WU 2 DAA AM.
The mark [5] stands for this setting: 48 h, 2 DAA p.m. (14:00-19:50), read-out: % WU 2 DAA PM.
[6] abbreviates: 60 h, cumulative total WU (0-2.5 DAA), read-out: % WU Total 0 to 2.5 DAA.

On to `C=CCN1C(=O)CCc2cc(CNS(=O)(=O)c3ccccc3)ccc21` [Compound 5.001, N-[(1-allyl-2-oxo-3,4-dihydroquinolin-6-yl)methyl]benzenesulfonamide], for which the change in vivo at 500 µM is -15.1% under setting [1]; -18.7% under setting [2]; -17.4% under setting [3]; -16.5% under setting [4]; -15.6% under setting [5]; -17.1% under setting [6].
For the compound `C=CCN1C(=O)CCc2cc(CNS(=O)(=O)c3ccc(F)cc3F)ccc21` [Compound 5.006, N-[(1-allyl-2-oxo-3,4-dihydroquinolin-6-yl)methyl]-2,4-difluoro-benzenesulfonamide], the change in vivo at 500 µM is, setting by setting: under setting [1], -13.6%; under setting [2], -12.5%; under setting [3], -11.5%; under setting [4], -9.7%; under setting [5], -9.9%; under setting [6], -11.4%.
Turning to `CCCn1c(=O)ccc2cc(CNS(=O)(=O)c3ccc(F)cc3F)ccc21` [Compound 7.006, 2,4-difluoro-N-[(2-oxo-1-propyl-6-quinolyl)methyl]benzenesulfonamide], the change in vivo at 500 µM under setting [1] is -14.6%; the change in vivo at 500 µM under setting [2] is -6.7%; the change in vivo at 500 µM under setting [3] was -4.2%; the change in vivo at 500 µM under setting [4] was -4.2%; the change in vivo at 500 µM under setting [5] is 0%; the change in vivo at 500 µM under setting [6] was -6.1%.
As for `CCCn1c(=O)ccc2cc(CNS(=O)(=O)c3ccc(F)cc3)ccc21` [Compound 7.009, 4-fluoro-N-[(2-oxo-1-propyl-6-quinolyl)methyl]benzenesulfonamide], the change in vivo at 500 µM is, setting by setting: under setting [1], -8.1%; under setting [2], -3.6%; under setting [3], -3.5%; under setting [4], -4%; under setting [5], -1.7%; under setting [6], -4.1%.
Consider `O=C1CCc2cc(CNS(=O)(=O)c3ccccc3)ccc2N1CC1CC1` [Compound 10.001, N-[[1-(cyclopropylmethyl)-2-oxo-3,4-dihydroquinolin-6-yl]methyl]benzenesulfonamide], for which the change in vivo at 500 µM was -25.2% under setting [1]; -23.8% under setting [2]; -22.7% under setting [3]; -14.9% under setting [4]; -14.7% under setting [5]; -20.8% under setting [6].
As to `O=C1CCc2cc(CNS(=O)(=O)c3ccc(F)cc3F)ccc2N1CC1CC1` [Compound 10.006, N-[[1-(cyclopropylmethyl)-2-oxo-3,4-dihydroquinolin-6-yl]methyl]-2,4-difluoro-benzenesulfonamide], the change in vivo at 500 µM is -22.4% under setting [1]; -18.5% under setting [2]; -18.2% under setting [3]; -16.9% under setting [4]; -17.8% under setting [5]; -18.6% under setting [6].
In the case of `O=C1CCc2cc(CNS(=O)(=O)c3ccccc3)ccc2N1CC(F)(F)F` [Compound 11.001, N-[[2-oxo-1-(2,2,2-trifluoroethyl)-3,4-dihydroquinolin-6-yl]methyl]benzenesulfonamide], the change in vivo at 500 µM by setting is: under setting [1], -20.8%; under setting [2], -26.2%; under setting [3], -27.6%; under setting [4], -26.9%; under setting [5], -26.9%; under setting [6], -26.1%.
For `O=C1CCc2cc(CNS(=O)(=O)c3ccc(F)cc3F)ccc2N1CC(F)(F)F` [Compound 11.006, 2,4-difluoro-N-[[2-oxo-1-(2,2,2-trifluoroethyl)-3,4-dihydroquinolin-6-yl]methyl]benzenesulfonamide], the change in vivo at 500 µM reads like this: under setting [1], -13%; under setting [2], -15.3%; under setting [3], -15.7%; under setting [4], -16.4%; under setting [5], -16.5%; under setting [6], -15.8%.
For the compound `COCCN1C(=O)CCc2cc(CNS(=O)(=O)c3ccccc3)ccc21` [Compound 13.001, N-[[1-(2-methoxyethyl)-2-oxo-3,4-dihydroquinolin-6-yl]methyl]benzenesulfonamide], the change in vivo at 500 µM under setting [1] was -15.1%; the change in vivo at 500 µM under setting [2] is -11%; the change in vivo at 500 µM under setting [3] was -11%; the change in vivo at 500 µM under setting [4] was -8.9%; the change in vivo at 500 µM under setting [5] is -9.2%; the change in vivo at 500 µM under setting [6] is -11.1%.
Take `COCCN1C(=O)CCc2cc(CNS(=O)(=O)c3ccc(F)cc3F)ccc21` [Compound 13.006, 2,4-difluoro-N-[[1-(2-methoxyethyl)-2-oxo-3,4-dihydroquinolin-6-yl]methyl]benzenesulfonamide]: the change in vivo at 500 µM was -9.8% under setting [1]; -9.3% under setting [2]; -10.1% under setting [3]; -9.6% under setting [4]; -10.3% under setting [5]; -10.1% under setting [6].
Consider `CCN1C(=O)CC(C)c2cc(CNS(=O)(=O)c3ccccc3)cc(C)c21` (stereo not drawn) [Compound 16.001, N-[(1-ethyl-4,8-dimethyl-2-oxo-3,4-dihydroquinolin-6-yl)methyl]benzenesulfonamide], for which the change in vivo at 500 µM is, setting by setting: under setting [1], -39%; under setting [2], -49%; under setting [3], -48.1%; under setting [4], -45.7%; under setting [5], -44.5%; under setting [6], -46%.
For `CCCN1C(=O)CCc2cc(CNS(=O)(=O)c3ccccc3)cc(F)c21` [Compound 17.001, N-[(8-fluoro-2-oxo-1-propyl-3,4-dihydroquinolin-6-yl)methyl]benzenesulfonamide], the change in vivo at 500 µM runs as follows: under setting [1], -41.6%; under setting [2], -38%; under setting [3], -36.3%; under setting [4], -27.1%; under setting [5], -26.3%; under setting [6], -34.7%.
Regarding `CCN1C(=O)CC(C)c2cc(CNS(=O)(=O)c3ccccc3)cc(F)c21` (stereo not drawn) [Compound 22.001, N-[(1-ethyl-8-fluoro-4-methyl-2-oxo-3,4-dihydroquinolin-6-yl)methyl]benzenesulfonamide], the change in vivo at 500 µM by setting is: under setting [1], -46.1%; under setting [2], -55.8%; under setting [3], -53%; under setting [4], -55.1%; under setting [5], -50.1%; under setting [6], -52.1%.
On to `CC1CC(=O)N(CC(F)(F)F)c2ccc(CNS(=O)(=O)c3ccccc3)cc21` (stereo not drawn) [Compound 23.001, N-[[4-methyl-2-oxo-1-(2,2,2-trifluoroethyl)-3,4-dihydroquinolin-6-yl]methyl]benzenesulfonamide], for which the change in vivo at 500 µM is -31.3% under setting [1]; -39.7% under setting [2]; -40.8% under setting [3]; -35.9% under setting [4]; -37.3% under setting [5]; -37.7% under setting [6].
